Type in all cases: biochemical
One test deals with T1, TEC (Homo sapiens, UniProt P42680).
T1 construct: purchased Reaction Biology Corporation
T1 sequence (P42680 1-631): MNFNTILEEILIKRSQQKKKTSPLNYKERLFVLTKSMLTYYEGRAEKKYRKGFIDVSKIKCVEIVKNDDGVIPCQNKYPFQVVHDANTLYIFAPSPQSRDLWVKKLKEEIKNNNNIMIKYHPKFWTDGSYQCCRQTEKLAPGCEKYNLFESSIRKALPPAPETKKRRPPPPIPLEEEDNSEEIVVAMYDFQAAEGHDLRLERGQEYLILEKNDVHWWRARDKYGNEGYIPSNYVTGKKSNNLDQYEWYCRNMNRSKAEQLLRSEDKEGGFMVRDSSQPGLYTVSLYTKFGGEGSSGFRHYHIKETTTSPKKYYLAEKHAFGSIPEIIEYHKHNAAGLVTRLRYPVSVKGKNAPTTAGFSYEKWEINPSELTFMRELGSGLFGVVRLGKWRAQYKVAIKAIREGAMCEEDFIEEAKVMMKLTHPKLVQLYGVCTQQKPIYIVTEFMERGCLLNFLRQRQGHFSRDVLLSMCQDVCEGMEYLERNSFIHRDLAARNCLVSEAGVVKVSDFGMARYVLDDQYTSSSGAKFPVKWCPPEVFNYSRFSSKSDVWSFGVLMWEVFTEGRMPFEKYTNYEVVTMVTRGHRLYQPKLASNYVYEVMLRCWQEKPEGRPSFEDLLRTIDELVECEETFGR
Description: TEC kinase profiling (BTK protocol). As to conditions: compound 0.3 μM; read-out: TEC @ 0.3 μM (% Inh). As to the method:
(§1) BTK assay: In vitro profiling protein kinases was performed using the “HotSpot” assay platform. Briefly, specific kinase/substrate pairs along with required cofactors were prepared in reaction buffer. Compounds were prepared as 10 mM stock solutions in DMSO. Compounds were delivered into the reaction, followed 15-20 minutes later by addition of a mixture of ATP (Sigma, St. Louis Mo.) and ^33P ATP (Perkin Elmer, Waltham Mass.) to a final concentration of 10 μM. Reactions were carried out at RT for 120 min, followed by spotting of the reactions onto P81 ion exchange filter paper (Whatman Inc., Piscataway, N.J.). Unbound phosphate was removed by extensive washing of filters in 0.75% Phosphoric acid. […] ICso values and curve fits were obtained using Prism (GraphPad Software). Buffer Conditions: 20 mM Hepes (pH 7.5), 10 mM MgCl2, 1 mM EGTA, 0.02% Brij35, 0.02 mg/mL BSA, 0.1 mM Na3VO4, 2 mM DTT, 1% DMSO.
(§2) Compounds of the invention were profiled in a 10 dose IC50 panel against BMX/ETK, ITK and TEC kinases, provided by Reaction Biology Corporation, applied to the BTK protocol provided in Example B1.

Another test has as its target T2, ITK (Homo sapiens, UniProt Q08881).
T2 construct: purchased Reaction Biology Corporation
T2 sequence (Q08881 1-620): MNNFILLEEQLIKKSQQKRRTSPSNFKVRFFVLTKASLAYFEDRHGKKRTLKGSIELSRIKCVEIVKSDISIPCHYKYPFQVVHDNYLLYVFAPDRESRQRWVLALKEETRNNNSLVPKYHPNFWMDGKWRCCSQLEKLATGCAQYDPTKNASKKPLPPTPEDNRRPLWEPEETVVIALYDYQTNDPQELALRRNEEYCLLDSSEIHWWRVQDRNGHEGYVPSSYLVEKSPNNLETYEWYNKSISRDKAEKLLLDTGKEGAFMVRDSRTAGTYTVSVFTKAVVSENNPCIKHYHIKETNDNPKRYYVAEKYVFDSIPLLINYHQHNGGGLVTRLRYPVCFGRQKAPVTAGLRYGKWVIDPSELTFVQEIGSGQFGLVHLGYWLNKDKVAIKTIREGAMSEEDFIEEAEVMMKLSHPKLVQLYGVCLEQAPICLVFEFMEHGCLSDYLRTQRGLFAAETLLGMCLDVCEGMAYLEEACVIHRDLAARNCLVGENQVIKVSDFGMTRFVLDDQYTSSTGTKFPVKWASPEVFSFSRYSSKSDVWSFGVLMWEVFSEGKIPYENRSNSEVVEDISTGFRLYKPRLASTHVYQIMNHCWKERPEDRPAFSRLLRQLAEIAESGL
As to the kind of experiment: ITK kinase profiling (BTK protocol). Conditions: compound 0.3 μM; read-out: ITK @ 0.3 μM (% Inh). The procedure: as §1, §2

For a further test, the target named is T3, PI3Kδ (Homo sapiens, UniProt O00329).
T3 construct: purchased Reaction Biology Corporation
Description: PI3Kδ kinase profiling, HTRF PIP3 displacement assay (Reaction Biology). Conditions: for inhibition at 1 µM: compound 1 μM, ATP 10 μM, read-out: PI3Kδ @ 1 μM (% Inh). The source says:
Compounds of the invention were profiled in a 10 dose IC50 panel against BTK and PI3Kδ, both provided by Reaction Biology Corporation.
(§3) PI3Kδ assay: The PIP3 product is detected by displacement of biotin-PIP3 from an energy transfer complex consisting of Europium labeled anti-GST monoclonal antibody, a GST-tagged pleckstrin homology (PH) domain, biotinylated PIP3 and Streptavidin-Allophycocyanin (APC). Excitation of Europium in the complex results in an energy transfer to the APC and a fluorescent emission at 665 nm. The PIP3 product formed by PI3-Kinase (h) activity displaces biotin-PIP3 from the complex resulting in a loss of energy transfer and thus a decrease in signal. This is a 3-step reaction: First, the kinase reaction with PIP2 substrate is carried out in the presence of ATP (10 μM), and the reaction is quenched with stop Solution, and then finally detect by adding Detection Mixture followed by incubation (10 min). Reaction procedure: 1) Prepare substrate in freshly prepared Reaction Buffer. 2) Deliver kinase into the substrate solution and gently mix. 3) Deliver compounds in 100% DMSO (1 μM) into the kinase reaction mixture by Acoustic technology (Echo550; nanoliter range), incubate for 10 min at RT. 4) Deliver ATP into the reaction mixture to initiate the reaction. 5) Incubate for 30 min at 30° C. 6) Quench the reaction with Stop Solution. 7) Add Detection Mixture, and incubate for overnight. 8) Measure HTRF: Ex=320 nm, ratio of Em=615 nm and Em=665 nm. The emission ratio is converted into μM PIP3 production based on PIP3 standard curves. The nonlinear regression to obtain the standard curve and IC50 values are performed using Graphpad Prism software. Assay Buffer: HEPES 50 mM (pH7.0), NaN3 0.02%, BSA 0.01%, Orthovanadate 0.1 mM, 1% DMSO. Detection buffer: HEPES 10 mM (pH7.0), BSA 0.02%, KF 0.16 M, EDTA 4 mM. Substrate: 10 μM PIP2 substrate (PI(4,5)P2).
(In general: TR-FRET usually uses a lanthanide donor and a delayed reading to cut background.)

For the next test, the target named is T4, PI3Kβ (Homo sapiens, UniProt P42338).
T4 construct: purchased Reaction Biology Corporation
As to the kind of experiment: PI3K isoform profiling, PI3Kβ (PI3Kδ protocol). As to conditions: for IC50: 10 dose IC50; for inhibition at 0.3 µM: compound 0.3 μM, read-out: PI3Kβ @ 0.3 μM (% Inh).
Description: as §3
Compounds of the invention were profiled in a 10 dose IC50 panel against PI3Kα, PI3Kβ, and PI3Kγ kinases, provided by Reaction Biology Corporation, applied to the PI3Kδ protocol provided in Example B1.

T3 sequence (O00329 whole entry): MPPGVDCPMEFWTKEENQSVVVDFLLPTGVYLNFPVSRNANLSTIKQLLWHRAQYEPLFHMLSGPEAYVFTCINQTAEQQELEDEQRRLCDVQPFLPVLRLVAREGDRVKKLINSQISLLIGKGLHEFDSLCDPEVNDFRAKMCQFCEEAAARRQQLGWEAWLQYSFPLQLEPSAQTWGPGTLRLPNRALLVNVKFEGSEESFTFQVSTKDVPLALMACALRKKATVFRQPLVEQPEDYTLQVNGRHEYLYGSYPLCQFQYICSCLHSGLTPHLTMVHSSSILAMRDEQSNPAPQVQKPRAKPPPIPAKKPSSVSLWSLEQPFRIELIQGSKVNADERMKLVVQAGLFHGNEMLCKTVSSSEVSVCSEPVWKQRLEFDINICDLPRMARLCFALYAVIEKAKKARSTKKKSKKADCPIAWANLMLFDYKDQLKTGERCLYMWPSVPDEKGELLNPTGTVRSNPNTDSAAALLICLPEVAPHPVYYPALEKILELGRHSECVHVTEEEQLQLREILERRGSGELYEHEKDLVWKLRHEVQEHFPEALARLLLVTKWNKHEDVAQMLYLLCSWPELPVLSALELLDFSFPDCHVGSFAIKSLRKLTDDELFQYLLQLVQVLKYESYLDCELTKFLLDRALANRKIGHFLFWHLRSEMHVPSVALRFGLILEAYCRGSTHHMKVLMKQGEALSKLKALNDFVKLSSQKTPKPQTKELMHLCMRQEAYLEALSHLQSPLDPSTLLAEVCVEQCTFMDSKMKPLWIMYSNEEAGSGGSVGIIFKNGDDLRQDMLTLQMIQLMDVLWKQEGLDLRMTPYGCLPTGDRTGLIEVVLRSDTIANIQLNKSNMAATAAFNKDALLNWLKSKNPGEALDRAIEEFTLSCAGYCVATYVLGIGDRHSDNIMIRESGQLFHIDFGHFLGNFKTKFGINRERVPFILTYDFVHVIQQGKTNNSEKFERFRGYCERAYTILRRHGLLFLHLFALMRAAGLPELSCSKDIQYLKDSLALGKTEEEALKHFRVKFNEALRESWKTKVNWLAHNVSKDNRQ
T3 sequence (P27986 whole entry partner): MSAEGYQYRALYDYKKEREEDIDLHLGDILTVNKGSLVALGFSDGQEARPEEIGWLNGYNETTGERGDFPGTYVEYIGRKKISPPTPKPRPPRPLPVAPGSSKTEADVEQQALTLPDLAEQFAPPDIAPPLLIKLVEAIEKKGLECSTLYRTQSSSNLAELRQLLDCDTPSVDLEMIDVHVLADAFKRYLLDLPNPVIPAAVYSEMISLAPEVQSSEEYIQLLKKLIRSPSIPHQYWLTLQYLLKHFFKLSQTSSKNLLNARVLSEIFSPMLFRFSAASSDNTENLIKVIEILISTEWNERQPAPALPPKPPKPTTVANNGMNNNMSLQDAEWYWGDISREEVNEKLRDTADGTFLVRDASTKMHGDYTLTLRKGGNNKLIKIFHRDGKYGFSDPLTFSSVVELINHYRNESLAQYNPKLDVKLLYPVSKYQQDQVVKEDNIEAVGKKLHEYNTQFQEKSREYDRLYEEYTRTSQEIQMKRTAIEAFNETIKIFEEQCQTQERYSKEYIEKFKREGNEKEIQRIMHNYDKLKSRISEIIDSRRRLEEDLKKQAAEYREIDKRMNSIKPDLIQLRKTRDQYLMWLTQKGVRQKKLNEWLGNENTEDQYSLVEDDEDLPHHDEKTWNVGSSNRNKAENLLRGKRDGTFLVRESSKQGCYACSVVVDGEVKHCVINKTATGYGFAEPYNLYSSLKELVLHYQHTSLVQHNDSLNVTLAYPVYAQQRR
T4 sequence (P42338 whole entry): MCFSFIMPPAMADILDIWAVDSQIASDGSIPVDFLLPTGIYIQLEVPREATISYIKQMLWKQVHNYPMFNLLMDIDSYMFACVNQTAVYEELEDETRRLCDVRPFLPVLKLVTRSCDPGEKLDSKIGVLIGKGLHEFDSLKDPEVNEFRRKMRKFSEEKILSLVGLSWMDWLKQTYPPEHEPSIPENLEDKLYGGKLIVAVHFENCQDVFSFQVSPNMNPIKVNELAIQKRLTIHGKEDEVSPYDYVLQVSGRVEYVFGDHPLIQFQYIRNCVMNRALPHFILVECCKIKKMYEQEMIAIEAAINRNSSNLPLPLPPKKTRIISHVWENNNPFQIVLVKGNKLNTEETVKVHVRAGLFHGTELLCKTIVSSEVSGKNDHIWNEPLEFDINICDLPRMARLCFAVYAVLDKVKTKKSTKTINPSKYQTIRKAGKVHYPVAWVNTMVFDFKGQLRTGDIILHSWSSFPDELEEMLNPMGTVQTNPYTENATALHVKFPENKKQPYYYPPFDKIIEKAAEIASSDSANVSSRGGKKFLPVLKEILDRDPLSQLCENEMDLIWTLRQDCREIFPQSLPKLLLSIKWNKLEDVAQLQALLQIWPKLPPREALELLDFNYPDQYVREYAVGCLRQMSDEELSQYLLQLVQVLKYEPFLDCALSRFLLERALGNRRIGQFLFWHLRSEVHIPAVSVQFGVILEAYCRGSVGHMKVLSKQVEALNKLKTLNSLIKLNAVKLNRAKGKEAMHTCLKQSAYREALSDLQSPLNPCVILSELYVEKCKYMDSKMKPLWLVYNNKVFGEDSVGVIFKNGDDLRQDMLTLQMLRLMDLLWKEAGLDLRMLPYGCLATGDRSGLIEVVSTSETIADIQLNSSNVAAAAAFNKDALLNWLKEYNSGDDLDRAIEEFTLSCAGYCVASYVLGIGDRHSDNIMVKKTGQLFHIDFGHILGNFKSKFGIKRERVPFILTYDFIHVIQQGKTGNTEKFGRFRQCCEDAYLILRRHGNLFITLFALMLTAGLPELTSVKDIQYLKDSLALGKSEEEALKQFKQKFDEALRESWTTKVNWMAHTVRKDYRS
T4 sequence (P27986 whole entry partner): as the sequence (P27986 whole entry partner) above

The IC50 is the point on the concentration scale where inhibition reaches its midpoint. Read a low IC50 as higher potency. Turning to `C=CC(=O)N(CCn1nc(-c2cc(O)cc(F)c2)c2c(N)ncnc21)c1ccccc1` [Compound 2, N-(2-(4-amino-3-(3-fluoro-5-hydroxyphenyl)-1H-pyrazolo[3,4-d]pyrimidin-1-yl)ethyl)-N-phenylacrylamide], the inhibition at 0.3 µM on TEC stood at 72.6%; at ITK it was 50.7%; on PI3Kβ it was 30.4%. Moreover, the IC50 was found to be 51.6 nM at PI3Kδ and 5.28 µM on PI3Kβ.

In the case of `C=CC(=O)N(CCn1nc(-c2cc(O)cc(F)c2)c2c(N)ncnc21)Cc1ccccc1F` [Compound 11, N-[2-[4-amino-3-(3-fluoro-5-hydroxy-phenyl)pyrazolo[3,4-d]pyrimidin-1-yl]ethyl]-N-[(2-fluorophenyl)methyl]prop-2-enamide], the inhibition at 0.3 µM was determined as 68.7% on TEC, 34.7% on ITK and 41% at PI3Kβ. At PI3Kδ, the IC50 is 32 nM. Also, on PI3Kδ, the inhibition at 1 µM came out at 82.4%.

In the case of `C=CC(=O)N(CCn1nc(-c2cc(O)cc(F)c2)c2c(N)ncnc21)Cc1ccccc1` [Compound 5, N-(2-(4-amino-3-(3-fluoro-5-hydroxyphenyl)-1H-pyrazolo[3,4-d]pyrimidin-1-yl)ethyl)-N-benzylacrylamide], the inhibition at 0.3 µM on TEC worked out at 48.8%; at ITK, 10.2%; at PI3Kβ, 45.8%. Further, the figures for the half-maximal inhibitory concentration (IC50) at PI3Kδ and on PI3Kβ were 13 nM and 3.41 µM, respectively.

As for `C=CC(=O)N(CCn1nc(-c2cc(O)cc(F)c2)c2c(N)ncnc21)Cc1ccc(Cl)cc1` [Compound 12, N-{2-[4-amino-3-(3-fluoro-5-hydroxyphenyl)-1H-pyrazolo[3,4-d]pyrimidin-1-yl]ethyl}-N-[(4-chlorophenyl)methyl]prop-2-enamide], the inhibition at 0.3 µM on TEC was 71.6%; at ITK it was 62.5%; at PI3Kβ, 31.3%. On PI3Kδ, this compound returned an IC50 of 9.7 nM.

Turning to `C=CC(=O)N(CCn1nc(-c2cc(O)c(F)c(F)c2)c2c(N)ncnc21)Cc1ccc(Cl)cc1` [Compound 16, N-{2-[4-amino-3-(3,4-difluoro-5-hydroxyphenyl)-1H-pyrazolo[3,4-d]pyrimidin-1-yl]ethyl}-N-[(4-chlorophenyl)methyl]prop-2-enamide], the inhibition at 0.3 µM came out at 75% at TEC, 8.93% at ITK and 25.2% at PI3Kβ. For the same compound, the IC50 on PI3Kδ was 12.4 nM.

As for `C=CC(=O)N(CCn1nc(-c2cc(O)cc(F)c2)c2c(N)ncnc21)Cc1ccc(F)cc1` [Compound 10, N-{2-[4-amino-3-(3-fluoro-5-hydroxyphenyl)-1H-pyrazolo [3,4-d]pyrimidin-1-yl]ethyl}-N-[(4-fluorophenyl)methyl]prop-2-enamide], the results for the inhibition at 0.3 µM at TEC, on ITK and at PI3Kβ were 66.1%, 30.5% and 16.3%, respectively. In addition, at PI3Kδ, the IC50 was found to be 12.8 nM. In addition, on PI3Kδ, the inhibition at 1 µM was 89%.

On to `Nc1ncnc2c1c(-c1cc(O)cc(F)c1)nn2CCNc1ccccc1` [Compound 1, 3-(4-amino-1-(2-(phenylamino)ethyl)-1H-pyrazolo [3,4-d]pyrimidin-3-yl)-5-fluorophenol], for which the results for the inhibition at 0.3 µM at TEC, on ITK and on PI3Kβ were -1.13%, 0.06% and 62%, respectively. For the same compound, on PI3Kδ, the IC50 came out at 10 nM.

Values taken from patent US20160272645A1, “Heterocyclic Compounds and Methods of Use” (MEDIVATION TECHNOLOGIES, INC., priority 2013, published 2016).
